Test results published in PMC6696115, “Characterization of Antimicrobial, Antioxidant, and Leishmanicidal Activities of Schiff Base Derivatives of 4-Aminoantipyrine” (Molecules, 2019).
Values after ≈ are worked out from the molar mass of the structure shown. Like-named read-outs stand apart in the source and are kept apart here.

Tests used:
[1] = tested on: S. cerevisiae (backgrounds W303 and BY4741); assay: antimicrobial serial microdilution, S. cerevisiae; format: cell-based, Saccharomyces cerevisiae; conditions: 48 h; for MIC / IC50: Saccharomyces cerevisiae; for MIC: read-out: MIC S. cerevisiae; for NIC S. cerevisiae: noninhibitory concentration
Protocol: (§1) The in vitro antifungal and antimicrobial activities were determined by testing the Schiff bases against the fungi Saccharomyces cerevisiae, Candida albicans, and Aspergillus niger and the bacteria Staphylococcus aureus, Enterococcus faecalis (Gram-positive), Pseudomonas aeruginosa, and Escherichia coli (Gram-negative).
(§2) The bacterial inoculum was prepared by emulsifying overnight colonies from an agar medium in broth (Mueller–Hinton broth). The suspensions were adjusted to a final organism density of 5 × 10^5 colony former units (cfu)/mL. […] The emulsifying of A. niger cultures was done by pouring 5 mL of saline and 0.1% of polysorbate 80 over the Petri dishes. Then, 100 µL of this suspension were diluted in 5 mL of saline and adjusted to an optical density of 0.1 at 530 nm. For S. cerevisiae, fresh exponential YPAD (yeast extract 1%, peptone 2%, adenine 0.004%, […]) cultures were adjusted to an optical density of 0.5 at 600 nm, and then diluted to the equivalent of 1 × 10^4 cells/mL (10^−3 dilution). Stock solutions of Schiff bases were prepared by dissolving them in DMSO at 10 mg/mL. […] The range of concentrations used was empirically selected for each organisms and the Schiff base. Drug sensitivities were assayed by serial dilutions in 96-well plates as previously described. A row with media and cells but without drug was the positive control. The blank was done by preparing a row with media and drugs, but without cells. Plates were fitted with a tight lid before incubation to prevent desiccation. […] The minimum bactericidal concentration (MBC) and fungicidal concentration (MFC) were determined by spreading 100 µL of culture from each well onto a plate (Mueller–Hinton agar for bacteria, Sabouraud dextrose agar for fungi except S. cerevisiae, and YPAD for S. cerevisiae).

[2] = tested on: Candida albicans ATCC 10231; assay: antimicrobial serial microdilution, C. albicans; format: cell-based; conditions: serial microdilution, 35 °C, 48 h
Protocol: as §1, §2

[3] = tested on: Escherichia coli ATCC 25922; assay: antimicrobial serial microdilution, E. coli; format: cell-based; conditions: serial microdilution, 37 °C, 24 h
Protocol: as §1, §2

RAW 264.7 cells = assay: cell viability, MTT dye assay; format: cell-based, murine; conditions: 48 h
Protocol: The specificity and selectivity for the pathogen target is a key point for any potential drug.
The medium was renewed once a week. The viability was determined using MTT (thiazolyl blue tetrazolium bromide) dye assay as described previously for leishmanicidal activity assessment, with some variations. Here, 5 × 10^4 cells/well in a final volume of 100 µL were deposited into a 96-well plate in triplicate. Saponin (2 and 4 mg/mL) and untreated cells were used as the positive control and negative control, respectively. Schiff bases were dissolved in DMSO to obtain different serial concentrations (0.01–2000 µM). […] Cells were pelleted by centrifugation at 4400 rpm for 10 minutes and the media was removed. Next, 100 µL/well of DMSO were added and the absorbance at 570 nm was recorded. A reference wavelength of 630 nm was used for background subtraction.

[4] = tested on: Staphylococcus aureus ATCC 29213; assay: antimicrobial serial microdilution, S. aureus; format: cell-based; conditions: serial microdilution, 37 °C, 24 h
Protocol: as §1, §2

[5] = tested on: promastigotes from L. mexicana (M379); assay: leishmanicidal activity, MTT colorimetric assay; format: cell-based; conditions: Leishmania mexicana, 48 h exposure, 1% DMSO
Protocol: Leishmanicidal activities of all Schiff bases were evaluated by measuring promastigote mitochondrial activity using MTT colorimetric assay as described previously. […] The medium was renewed every four days. Parasite density was determined in a Neubauer chamber.
Into each well of a 96-well cell culture dish was dispensed 1 × 10^6 parasites. A stock solution of each of the Schiff Base was prepared in DMSO, and serial dilutions were added to the parasite suspension, keeping the solvent concentration at 1%. The final volume was 100 µL for each well and triplicate conditions were carried out. Pentamidine treatment (100 µg/mL) and untreated parasites were used as positive control and negative control, respectively. After exposure to the compounds for 48 h in culture medium, 10 µL of a solution of 5 mg/mL MTT dissolved in PBS was added to each well. […] Later, the plate was centrifuged at 4400 rpm for 10 min and the culture medium was then aspirated. Next, 100 µL of DMSO were added into each well to solubilize the formazan and the plate was shaken for 5 min. The colored formazan salt was measured by recording changes in absorbance at 570 nm using a microplate reader, a BioTek Synergy HT spectrophotometer. A reference wavelength of 630 nm was used to subtract background. Optical densities were analyzed as the quantity of formazan is directly proportional to the number of viable parasites. Data were analyzed with the statistical software GraphPad Prism.

[6] = tested on: Enterococcus faecalis ATCC 29212; assay: antimicrobial serial microdilution, E. faecalis; format: cell-based; conditions: Enterococcus faecalis, ATCC29212; serial microdilution, 37 °C, 24 h
Protocol: as §1, §2

[7] = tested on: Aspergillus niger ATCC 6275; assay: antimicrobial serial microdilution, A. niger; format: cell-based; conditions: serial microdilution, 35 °C, 48 h; for MIC: 96-well plates, max 2% DMSO
Protocol: as §1, §2

P. aeruginosa ATCC 27853 = assay: antimicrobial serial microdilution, P. aeruginosa; format: cell-based; conditions: Pseudomonas aeruginosa, ATCC27853, 37 °C, 24 h
Protocol: as §1, §2

[8] = DPPH radical scavenging assay; format: biochemical; conditions: 30 min, room temperature, dark, absorbance 515 nm
Protocol: This was used immediately. The experimental procedure was adapted from the literature. Briefly, in a 96-well plate, 100 µL of solution of DPPH (2, 2-diphenyl-1-picrylhydrazyl) radical (0.2 mM in methanol) was added to 100 µL of methanolic solutions of 3a–j, 4, or 5, prepared as serial two-fold dilutions from the stock solution. Standards were also prepared in the same concentrations.
The percentage of DPPH scavenging was then calculated by using the following formula: % DPPH scavenging=100∗Asample+DPPH−Asample blank/ADPPH−Asolvent

[9] = carcinogenicity group; ref IARC; cited from earlier work
[10] = Staphylococcus aureus, ATCC29213
[11] = serial microdilution, 35 °C, read-out: IC50 S. cerevisiae (converted)

Work on COc1ccc(C=Nc2c(C)n(C)n(-c3ccccc3)c2=O)cc1 [Compound 3c, 4-(4-Methoxybenzylideneamino)-1,5-dimethyl-2-phenyl-1H-pyrazol-3(2H)-one] yielded an MIC ([1]; serial microdilution, 35 °C) of over 200 µg/mL, an MIC ([2]; Candida albicans, ATCC10231) of over 200 µg/mL and an MIC ([3]; Escherichia coli, ATCC25922) of over 200 µg/mL. For the same compound, the “% Live Cells” value (RAW 264.7 cells; RAW 264.7, exposure to 400 µM) was 26.1 ± 1.9%, the MIC [4, 10] was over 200 µg/mL and the IC50 [5] was over 200 µM. For the same compound, the MIC [6] was over 200 µg/mL, the MIC ([7]; Aspergillus niger, ATCC6275) was over 200 µg/mL and the MIC (P. aeruginosa ATCC 27853) was over 200 µg/mL. The IC50 [8] was over 200 µM.
For O=P1(N(CCCl)CCCl)NCCCO1 (stereo not drawn) [Cyclophosphamide], the “IARC: group of classification of IARC” value [9] is given as 1.
For CN(Cc1cnc2nc(N)nc(N)c2n1)c1ccc(C(=O)N[C@@H](CCC(=O)O)C(=O)O)cc1 [Methotrexate], the “IARC: group of classification of IARC” value [9] is given as 3.
For O=c1[nH]cc(F)c(=O)[nH]1 [Fluorouracil], the “IARC: group of classification of IARC” value [9] is listed as 3.
In the case of N=C(N)c1ccc(OCCCCCOc2ccc(C(=N)N)cc2)cc1 [PT, pentamidine, reference compound], the IC50 [5] is reported as 4.5 ± 0.46 µM.
O=c1c(O)c(-c2ccc(O)c(O)c2)oc2cc(O)cc(O)c12 [quercetin, reference compound] gave an IC50 [8] of 7.3 ± 1 µM.
For Cc1c(N=Cc2cccc([N+](=O)[O-])c2)c(=O)n(-c2ccccc2)n1C [Compound 3g, 4-(3-Nitrobenzylideneamino)-1,5-dimethyl-2-phenyl-1H-pyrazol-3(2H)-one], the IC50 [1, 11] was 105 µg/mL (≈ 312 µM), the MIC ([1]; serial microdilution, 35 °C) was 179 ± 59.5 µg/mL (≈ 533 µM) and the “NIC S. cerevisiae” value ([1]; serial microdilution, 35 °C) was 63.7 ± 8.7 µg/mL. The MIC ([2]; Candida albicans, ATCC10231) was over 200 µg/mL, the MIC ([3]; Escherichia coli, ATCC25922) was over 200 µg/mL and the “% Live Cells” value (RAW 264.7 cells; RAW 264.7, exposure to 300 µM (limited solubility)) was 22.1 ± 0.6%. The MIC [4, 10] was over 200 µg/mL, the IC50 [5] was over 200 µM and the MIC [6] was over 200 µg/mL. For the same compound, the MIC ([7]; Aspergillus niger, ATCC6275) was over 200 µg/mL, the MIC (P. aeruginosa ATCC 27853) was over 200 µg/mL and the IC50 [8] was over 200 µM.
Compound Cc1c(N=Cc2cc([N+](=O)[O-])ccc2O)c(=O)n(-c2ccccc2)n1C [Compound 3f, 4-(2-Hydroxy-5-nitrobenzylideneamino)-1,5-dimethyl-2-phenyl-1H-pyrazol-3(2H)-one] has a melting point of 204.9 to 205.6 °C, an IC50 [1, 11] of 17.9 µg/mL (≈ 50.8 µM) and an MIC ([1]; serial microdilution, 35 °C) of 55.9 ± 6.2 µg/mL (≈ 159 µM). For the same compound, the “NIC S. cerevisiae” value ([1]; serial microdilution, 35 °C) was 5.6 ± 0.9 µg/mL, the IC50 ([2]; Candida albicans, ATCC10231) was 10.4 µg/mL (≈ 29.5 µM) and the MIC ([2]; Candida albicans, ATCC10231) was 15.6 ± 0.9 µg/mL (≈ 44.3 µM). For the same compound, the “NIC C. albicans” value ([2]; noninhibitory concentration) was 7.5 ± 1.1 µg/mL, the IC50 ([3]; Escherichia coli, ATCC25922) was 15.8 µg/mL (≈ 44.8 µM) and the MIC ([3]; Escherichia coli, ATCC25922) was 47.7 ± 1 µg/mL (≈ 135 µM). The “NIC E. coli” value ([3]; noninhibitory concentration) was 4.9 ± 0.2 µg/mL, the IC50 [4, 10] was 9.5 µg/mL (≈ 27 µM) and the MIC [4, 10] was 27.7 ± 4.7 µg/mL (≈ 78.6 µM). For the same compound, the “NIC S. aureus” value ([4]; noninhibitory concentration) was 3.3 ± 1.5 µg/mL, the IC50 [5] was 5.3 ± 2.8 µM and the MIC [6] was over 200 µg/mL. The IC50 ([7]; Aspergillus niger, ATCC6275) was 10.6 µg/mL (≈ 30.1 µM), the MIC ([7]; Aspergillus niger, ATCC6275) was 32.6 ± 2.1 µg/mL (≈ 92.5 µM) and the “NIC A. niger” value ([7]; noninhibitory concentration) was 3.4 ± 0.5 µg/mL. It also gave an MIC (P. aeruginosa ATCC 27853) of over 200 µg/mL and an IC50 [8] of over 200 µM.
In the case of CN[C@@H]1[C@@H](O)[C@@H](O[C@@H]2[C@@H](O)[C@H](O[C@H]3O[C@H]([C@@H](C)O)[C@@H](O)[C@H](O)[C@H]3N)[C@@H](N)C[C@H]2N)OC[C@]1(C)O [GN, geneticin, reference compound], the IC50 ([1]; read-out: IC50 S. cerevisiae) is reported as 59.9 µg/mL (≈ 121 µM), the MIC [1] is reported as 93.7 ± 0.9 µg/mL (≈ 189 µM) and the “NIC S. cerevisiae” value ([1]; serial microdilution, 35 °C) is reported as 44.5 ± 1.7 µg/mL.
In the case of COc1cc([C@@H]2c3cc4c(cc3[C@@H](O[C@@H]3O[C@@H]5CO[C@@H](C)O[C@H]5[C@H](O)[C@H]3O)[C@H]3COC(=O)[C@H]23)OCO4)cc(OC)c1O [Etoposide], the “IARC: group of classification of IARC” value [9] is given as 1.
